From patent publication US20090286790A1, “ORGANIC COMPOUNDS” (priority 2006, published 2009) come the findings set out here.

The target of this assay is T1, CETP (Homo sapiens, UniProt P11597).
T1 construct: Human plasma (50 uL), assay buffer (35 uL) and test compound; tissue New Drug Development Research Center, Inc; host or cells: human EDTA plasma from healthy men
T1 sequence (P11597 18-493): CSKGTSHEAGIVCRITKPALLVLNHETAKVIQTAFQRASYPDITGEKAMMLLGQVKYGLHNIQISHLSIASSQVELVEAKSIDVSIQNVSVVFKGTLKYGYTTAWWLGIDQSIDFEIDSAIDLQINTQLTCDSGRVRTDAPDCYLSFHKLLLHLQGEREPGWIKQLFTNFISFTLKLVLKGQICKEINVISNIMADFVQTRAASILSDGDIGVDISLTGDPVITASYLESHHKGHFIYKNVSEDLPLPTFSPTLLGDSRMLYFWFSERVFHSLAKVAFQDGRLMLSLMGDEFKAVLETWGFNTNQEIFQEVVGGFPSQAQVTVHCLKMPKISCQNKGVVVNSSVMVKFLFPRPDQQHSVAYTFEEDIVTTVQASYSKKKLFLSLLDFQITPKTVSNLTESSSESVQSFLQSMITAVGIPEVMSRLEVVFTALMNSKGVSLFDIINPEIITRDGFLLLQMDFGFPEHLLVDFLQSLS
The assay can be described thus: In vitro CETP activity assay in human plasma. It is filed as biochemical. The settings on record: Table 1 Inhibitory Activity of Compounds. The procedure:
The cDNA of human pro-apoAI (NCBI accession number: NM_000039) is cloned from human liver Quick-Clone™ cDNA (Clontech, CA) and inserted to a pET28a vector (Novagen, Germany) for bacterial expression. Expressed protein as a fusion protein with 6×His-tag at N-terminus in BL-21 Gold (DE3) (Strategene, CA) is purified using HiTrap Chelating (GE Healthcare, CT).
Pro-apoAI containing microemulsion as a donor particle is prepared following previous reports (J. Biol. Chem., 280:14918-22). Glyceryl trioleate (62.5 ng, Sigma, Mo.), 3-sn-phosphatidylcholine (583 ng, Wako Pure Chemical Industries, Japan), and cholesteryl BODIPY® FL C12 (250 ng, Invitrogen, CA) are dissolved in 1 mL of chloroform. The solution is evaporated, then residual solvent is removed in vacuum for more than 1 hr. […]
Human EDTA plasma samples from healthy men are purchased from New Drug Development Research Center, Inc. Donor solution is prepared by a dilution of donor microemulsion with assay buffer. […] Fluorescence intensities are measured every 30 min at 37° C. with excitation wave length of 485 nm and emission wavelength of 535 nm. The CETP activity (Fl/min) is defined as the changes of fluorescence intensity from 30 to 90 min.

Broadly, the IC50 is the point on the concentration scale where inhibition reaches its midpoint. A higher IC50 goes with a need for much substance. `CC[C@@H]1C[C@H](N(Cc2cc(C(F)(F)F)cc(C(F)(F)F)c2)c2ncc(Br)cn2)C[C@H](Cc2ccccc2)N1C(=O)[C@H]1CC[C@@H](OC(C)=O)CC1` (relative stereo) [Example 17, acetic acid 4-{2-benzyl-4-[(3,5-bis-trifluoromethyl-benzyl)-(5-bromo-pyrimidin-2-yl)-amino]-6-ethyl-piperidine-1-carbonyl}-cyclohexyl Ester]: the half-inhibitory concentration (IC50) amounted to 314 nM. That is a sub-micromolar value.
Next, `CC[C@@H]1C[C@H](N(Cc2cc(C(F)(F)F)cc(C(F)(F)F)c2)c2ncc(Br)cn2)C[C@H](Cc2ccccc2)N1C(=O)[C@H]1CC[C@@H](O)CC1` (relative stereo) [Example 18, {2-benzyl-4-[(3,5-bis-trifluoromethyl-benzyl)-(5-bromo-pyrimidin-2-yl)-amino]-6-ethyl-piperidin-1-yl}-(4-hydroxy-cyclohexyl)-methanone]: 357 nM.
